From PMC10451377, “Rationally Designed Pyrimidine Compounds: Promising Novel Antibiotics for the Treatment of Staphylococcus aureus-Associated Bovine Mastitis” (Antibiotics, 2023)
≈ marks a conversion by molar mass, not a printed value.

Tests used:
Chemical stability = format: physicochemical
[1] = test system: Staphylococcus epidermidis ATCC 12228; test: Broth microdilution MIC; details: ATCC12228, read-out: Broth Microdilution MIC
S. simulans = test: Susceptibility of isolate panel (MIC50, MIC90, range); format: cell-based
From the text: (§1) Reference strains for this study (S. aureus ATCC 29213, ATCC 29740 [bovine mastitis strain Newbould], S. epidermidis ATCC 12228, E. coli ATCC 35695, E. faecalis ATCC 29212) were obtained from the American Type Culture Collection (ATCC, Rockville, MD). S. aureus strains CMRSA-10 and CMRSA-2 were obtained from the Laboratoire de santé publique du Québec (LSPQ, Sainte-Anne-de-Bellevue, QC, Canada) and are Canadian CA-MRSA USA-300 and HA-MRSA USA-100 clones, respectively. The strain E. coli imp4213 (lptD), used as a control in MIC assays, is a derivative of E. coli ATCC 35695 (E. coli MC4100) with an increased membrane permeability. […] Other MRSA strains used in this study are clinical isolates of human origin obtained from the microbiology laboratory of the Centre Hospitalier Universitaire de Sherbrooke (CHUS, Sherbrooke, QC, Canada). Bovine mastitis strains (S. aureus, S. chromogenes, S. haemolyticus, S. hominis, S. simulans) were obtained from the Canadian Bovine Mastitis and Milk Quality Research Network (CBRQMN, St-Hyacinthe, QC, Canada). Among these strains, S. aureus 2117 is a high producer of biofilm and was used in the biofilm-eradication assay. S. epidermidis isolates were provided by Centre de Recherche en Infectiologie (CRI) de Québec (Québec, QC, Canada).
(§2) The antibacterial activity of the most promising compound, PC206, was also evaluated against larger groups of clinical isolates of human and animal origin. The MIC50 and MIC90 values represented the concentrations of drug required to inhibit the growth of 50% and 90% of the bacterial strains tested, respectively.

S. chromogenes = test: as above; format: cell-based
From the text: as §1, §2

S. hominis = test: as above; format: cell-based; details: S. hominis, 10 isolates
From the text: as §1, §2

S. epidermidis = test: as above; format: cell-based; details: S. epidermidis, 10 isolates
From the text: as §1, §2

[2] = test system: Staphylococcus aureus ATCC 29213; test: Broth microdilution MIC; details: ATCC29213, read-out: Broth Microdilution MIC
S. haemolitycus = test: Susceptibility of isolate panel (MIC50, MIC90, range); format: cell-based, S. haemolyticus
From the text: as §1, §2

[3] = test system: S. aureus Newbould (ATCC 29740); test: Murine mastitis model; details: two intramammary doses of 500 µg
[4] = test system: Escherichia coli ATCC 35695; test: Broth microdilution MIC; details: ATCC35695, read-out: Broth Microdilution MIC
LDH release assay = format: cell-based; details: bovine, MAC-T cells
[5] = test system: all reference staphylococci strains tested, including MRSA; test: Broth microdilution MIC, summary over reference staphylococci; details: Staphylococcus aureus, read-out: MIC ranging, against all reference staphylococci strains tested

In the case of `CCCCCCNc1cc(N)nc(N)n1` [PC206], the Stability in solution (Chemical stability) is reported as “remains stable in solution”, the MIC [1] is reported as 4 µg/mL (≈ 19.1 µM) and the “MIC Range” value (S. simulans; S. simulans, 5 isolates) is reported as 64 to 128 µg/mL. The MIC90 (S. simulans; Staphylococcus simulans) was 128 µg/mL (≈ 612 µM), the MIC50 (S. simulans; Staphylococcus simulans, S. simulans, 5 isolates, read-out: MIC50) was 64 µg/mL (≈ 306 µM) and the MIC90 (S. chromogenes) was 128 µg/mL (≈ 612 µM). The “MIC Range” value (S. chromogenes; S. chromogenes, 5 isolates) was 16 to 128 µg/mL, the MIC50 (S. chromogenes; S. chromogenes, 5 isolates, read-out: MIC50) was 32 µg/mL (≈ 153 µM) and the “MIC Range” value (S. hominis) was 1 to 32 µg/mL. For the same molecule, the MIC50 (S. hominis; Staphylococcus hominis, read-out: MIC50) was 8 µg/mL (≈ 38.2 µM), the MIC90 (S. hominis; Staphylococcus hominis, read-out: MIC90) was 32 µg/mL (≈ 153 µM) and the “MIC Range” value (S. epidermidis) was 2 to 16 µg/mL. For the same molecule, the MIC50 (S. epidermidis; Staphylococcus epidermidis, read-out: MIC50) was 4 µg/mL (≈ 19.1 µM), the MIC90 (S. epidermidis; Staphylococcus epidermidis, read-out: MIC90) was 8 µg/mL (≈ 38.2 µM) and the MIC [2] was 8 µg/mL (≈ 38.2 µM). For the same molecule, the “MIC Range” value (S. haemolitycus; S. haemolitycus, 10 isolates) was 4 to 128 µg/mL, the MIC90 (S. haemolitycus; Staphylococcus haemolyticus) was 128 µg/mL (≈ 612 µM) and the MIC50 (S. haemolitycus; Staphylococcus haemolyticus, S. haemolitycus, 10 isolates, read-out: MIC50) was 64 µg/mL (≈ 306 µM). For the same molecule, the “Tolerability in mice and mammary gland tissues” value [3] was “No inflammation, damage, nor adverse effects were observed”, the “Difference in median bacterial counts versus untreated mice” value ([3]; 1 and 4 h after infection, glands harvested 14 h post-infection) was 1.24 log10 CFU/g of gland and the MIC [4] was > 128 µg/mL. For the same molecule, the CC50 at 24 h (LDH release assay; 24 h) was > 600 µM, the CC50 at 24 h (LDH release assay; converted from μM) was > 125 µg/mL and the MIC [5] was 4 to 8 µg/mL (≈ 19.1 to 38.2 µM).
